Here are results for two compounds from patent US20090053721A1, “VOLTAGE-GATED ION CHANNEL MUTANTS FOR USE IN IDENTIFYING ION CHANNEL MODULATING COMPOUNDS” (CARDIOME PHARMA CORP., priority 2007, published 2009).

Holding throughout (assay type): cell-based
Assay [1] deals with T1, Kv1.5 I502A mutant channel (Homo sapiens, UniProt P22460, I502A).
T1 construct: subcloned as a fragment back into full-length Kv1.5; expressed in transfected cells; host or cells: HEK293, transient transfection
Kind of assay: Whole-cell patch-clamp block of mutant Kv1.5 current in HEK293 cells. The following applies: for Fold change: IC50 of I502A relative to WT, decrease in potency. As for the experimental part:
(§1) Stable lines of HEK293 cells expressing Kv1.5, or transient transfection of mutant Kv1.5 channels were used in all experiments. […] (Coralville, Iowa, USA), and mutants were generated using the Stratagene Quikchange kit (Stratagene, Calif., USA). […] This was added to the cells for overnight incubation after washing the media with 900 μl of MEM with 10% FBS. […] Media contained 10% bovine serum and 0.5 mg/ml geneticin for stable lines. On the day before recording, stably-expressing cells were washed with MEM, treated with trypsin/EGTA for one minute and plated on 25 mm^2 coverslips. All cell culture supplies were obtained from Invitrogen (Mississauga, ON, Canada). Control bath solution contained (in mM): 5 KCl, 135 NaCl, 2.8 sodium acetate, 1 MgCl2, 10 HEPES and 1 CaCl2, adjusted to pH 7.4 with NaOH. Patch pipettes contained (in mM): 130 KCl, 5 EGTA, 1 MgCl2, 10 HEPES, 4 Na2ATP, and 0.1 GTP, adjusted to pH 7.2 with KOH. All chemicals used to make solutions were obtained from Sigma-Aldrich (Mississauga, ON, Canada). […] (Vancouver, BC, Canada) and prepared as a stock solution (50 mM) in H2O. […] DMSO concentrations for either drug never exceeded 0.1% v/v in the final experimental solutions. Coverslips with adherent cells plated on the surface were placed in a superfusion chamber (volume 300 μl) containing the control bath solution at 22° C. Whole-cell current recording and analysis were carried out using an Axopatch 200B amplifier and pClamp10 software (Axon Instruments, CA, USA). Patch electrodes were pulled from thin-walled borosilicate glass (World Precision Instruments, FL, USA) on a horizontal micropipette puller (Sutter Instruments, CA, USA). […] Analogue capacity compensation and 80% series resistance compensation were used during whole cell measurements. Membrane potentials were not corrected for junction potentials that arise between the pipette and bath solution. […] Data were sampled at 10-20 kHz and filtered at 5 to 10 kHz. […] Data are represented as mean±SE unless otherwise specified. For significance of differences, * represents p<0.05, ** p<0.01; statistical analysis was conducted using Student's t-test (unpaired). Clampfit software (Axon Instruments, CA, USA) was used to analyze current traces. Data from each test pulse (currents in the presence of drug) were normalized to control test pulse currents obtained before drug exposure. […] IC50 is the concentration producing half-maximal inhibition; and n is the Hill coefficient.
On the technique in general: The patch-clamp technique gives a direct electrical read-out from membranes.

For assay [2], the target named is T2, Kv1.5 I502F mutant channel (Homo sapiens, UniProt P22460, I502F).
T2 construct: subcloned as a fragment back into full-length Kv1.5; expressed in transfected cells; host or cells: HEK293, transient transfection
T2 sequence (P22460 whole entry I502F, the tested form may be a part): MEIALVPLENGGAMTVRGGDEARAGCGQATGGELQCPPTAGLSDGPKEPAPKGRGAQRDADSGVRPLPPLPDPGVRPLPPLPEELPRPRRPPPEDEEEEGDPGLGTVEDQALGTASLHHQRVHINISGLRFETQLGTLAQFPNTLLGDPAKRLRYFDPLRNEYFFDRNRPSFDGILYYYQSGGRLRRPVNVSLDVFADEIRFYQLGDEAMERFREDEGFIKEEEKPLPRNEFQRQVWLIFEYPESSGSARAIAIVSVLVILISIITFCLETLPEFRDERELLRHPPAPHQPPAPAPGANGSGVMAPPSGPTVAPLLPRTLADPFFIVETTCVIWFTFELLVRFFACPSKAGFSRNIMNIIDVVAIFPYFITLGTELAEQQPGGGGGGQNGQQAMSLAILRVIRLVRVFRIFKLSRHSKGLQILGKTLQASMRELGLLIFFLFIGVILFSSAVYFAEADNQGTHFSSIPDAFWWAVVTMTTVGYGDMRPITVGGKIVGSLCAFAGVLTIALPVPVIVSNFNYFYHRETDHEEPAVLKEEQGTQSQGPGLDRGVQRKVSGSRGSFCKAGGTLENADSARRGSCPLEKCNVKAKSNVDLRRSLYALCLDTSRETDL
The assay is described as above. How it is done:
as §1

The target of assay [3] is T3, Kv1.5 I502L mutant channel (Homo sapiens, UniProt P22460, I502L).
T3 construct: subcloned as a fragment back into full-length Kv1.5; expressed in transfected cells; host or cells: HEK293, transient transfection
T3 sequence (P22460 whole entry I502L, the tested form may be a part): as the sequence (P22460 whole entry I502F, the tested form may be a part) above, with F502L counted along it
The assay is described as above. How it is done: as §1

Assay [4] has as its target T4, Kv1.5 I508A mutant channel (Homo sapiens, UniProt P22460, I508A).
T4 construct: subcloned as a fragment back into full-length Kv1.5; expressed in transfected cells; host or cells: HEK293, transient transfection
Described as above. The following applies: for Fold change: IC50 of I508A relative to WT, vernakalant potency reduced, flecainide potency increased. How it is done: as §1

Assay [5] deals with T5, Kv1.5 I508F mutant channel (Homo sapiens, UniProt P22460, I508F).
T5 construct: subcloned as a fragment back into full-length Kv1.5; expressed in transfected cells; host or cells: HEK293, transient transfection
T5 sequence (P22460 whole entry I508F, the tested form may be a part): as the sequence (P22460 whole entry I502F, the tested form may be a part) above, with F502I, I508F counted along it
The assay is described as above. How it is done: as §1

In assay [6] the target is T6, Kv1.5 T479A mutant channel (Homo sapiens, UniProt P22460, T479A).
T6 construct: subcloned as a fragment back into full-length Kv1.5; expressed in transfected cells; host or cells: HEK293, transient transfection
T6 sequence (P22460 whole entry T479A, the tested form may be a part): as the sequence (P22460 whole entry I502F, the tested form may be a part) above, with T479A, F502I counted along it
Described as above. The following applies: for Fold change: IC50 of T479A relative to WT, potency increased. As for the experimental part:
as §1

For assay [7], the target named is T7, Kv1.5 V505A mutant channel (Homo sapiens, UniProt P22460, V505A).
T7 construct: subcloned as a fragment back into full-length Kv1.5; expressed in transfected cells; host or cells: HEK293, transient transfection
T7 sequence (P22460 whole entry V505A, the tested form may be a part): as the sequence (P22460 whole entry I502F, the tested form may be a part) above, with F502I, V505A counted along it
The assay is described as above. Particulars: for Fold change: IC50 of V505A relative to WT, vernakalant potency reduced, flecainide potency increased. As for the experimental part:
as §1

The target of assay [8] is T8, Kv1.5 V505F mutant channel (Homo sapiens, UniProt P22460, V505F).
T8 construct: subcloned as a fragment back into full-length Kv1.5; expressed in transfected cells; host or cells: HEK293, transient transfection
T8 sequence (P22460 whole entry V505F, the tested form may be a part): as the sequence (P22460 whole entry I502F, the tested form may be a part) above, with F502I, V505F counted along it
The description is as above. How it is done: as §1

For another assay, the target named is T9, Kv1.5 WT channel (Homo sapiens, UniProt P22460).
T9 construct: subcloned as a fragment back into full-length Kv1.5; expressed in transfected cells
T9 sequence (P22460 whole entry, the tested form may be a part): as the sequence (P22460 whole entry I502F, the tested form may be a part) above, with F502I counted along it
In words: Voltage-dependence of block (Woodhull fit), wild-type Kv1.5. Particulars: for blocking site, electrical distance across the membrane: Woodhull fit, +10 to +60 mV; for calculated binding site within the electric field (fractional electrical distance δ): from the inside of the pore. How it is done:
(§2) Coverslips with adherent cells plated on the surface were placed in a superfusion chamber (volume 300 μl) containing the control bath solution at 22° C. Whole-cell current recording and analysis were carried out using an Axopatch 200B amplifier and pClamp10 software (Axon Instruments, CA, USA). Patch electrodes were pulled from thin-walled borosilicate glass (World Precision Instruments, FL, USA) on a horizontal micropipette puller (Sutter Instruments, CA, USA). […] Analogue capacity compensation and 80% series resistance compensation were used during whole cell measurements. Membrane potentials were not corrected for junction potentials that arise between the pipette and bath solution. For Kv1.5 current recordings, a holding potential of −80 mV was used. Data were sampled at 10-20 kHz and filtered at 5 to 10 kHz. To assess drug block, half-log escalating concentrations of drug were added to the flowing bath solution and current traces were recorded with 400 ms depolarizing pulses to +60 mV at a frequency of 0.1 Hz.
(§3) f=[D]/([D]+Kd*e^−δzFE/RT)
(§4) where F, R, z and T have their usual meanings, δ represents the fractional electrical distance, i.e., the fraction of the transmembrane electrical field sensed by a single charge at the receptor site. Kd* represents the binding affinity at the reference voltage (0 mV). The current amplitude (Idrug and Icontrol) was measured at the end of a 400 ms depolarization.
(§5) The amount of block was measured at the end of the pulse at the time indicated by the arrow on each set of data records, and, after normalization to the control, current density was plotted as a function of the depolarization potential (FIGS. 7B, 8B). Data were then fit to a standard model of drug block to obtain the electrical distance of the blocking site into the electric field from the inside of the channel (Woodhull, 1973).

Assay [9] has as its target T1, Kv1.5 I502A mutant channel. Kind of assay: Voltage-dependence of block (Woodhull fit), I502A Kv1.5. Particulars: for blocking site, electrical distance across the membrane: Woodhull fit; for calculated binding site within the electric field (fractional electrical distance δ): from the inside of the pore. As for the experimental part:
as §2, §3, §4, §5

Several values for one entry are separate records, joined by “and”; a condition that tells them apart may be missing. Equal entries are not always repeated. Structures can show the parent of a compound that is named as a salt.

T4 sequence (P22460 whole entry I508A, the tested form may be a part): as the sequence (P22460 whole entry I502F, the tested form may be a part) above, with F502I, I508A counted along it
T1 sequence (P22460 whole entry I502A, the tested form may be a part): as the sequence (P22460 whole entry I502F, the tested form may be a part) above, with F502A counted along it

As to `COc1ccc(CCO[C@@H]2CCCC[C@H]2N2CC[C@@H](O)C2)cc1OC` [Vernakalant, 3-Pyrrolidinol, 1-[(1R,2R)-2-[2-(3,4-dimethoxyphenyl)ethoxy]cyclohexyl]-,hydrochloride, (3R)], the Hill coefficient in [1] (Kv1.5 I502A) came out at 0.65; in assay [2] (Kv1.5 I502F), 0.84; in [3] (Kv1.5 I502L), 0.96; in assay [4] (Kv1.5 I508A), 0.87; in [5] (Kv1.5 I508F), 1.23; in assay [6] (Kv1.5 T479A), 0.6. Also, the results for the Hill coefficient in assay [7] (Kv1.5 V505A) and in assay [8] (Kv1.5 V505F) were 0.95 and 0.96, respectively. For the same compound, the “Fractional Block ± SEM” value in [1] (Kv1.5 I502A, 10 μM vernakalant) is 0.07 ± 0.03; in [2] (Kv1.5 I502F, 10 μM vernakalant), 0.10 ± 0.01; in [3] (Kv1.5 I502L, 10 μM vernakalant), 0.33 ± 0.07; in [4] (Kv1.5 I508A, 10 μM vernakalant), 0.21 ± 0.03; in assay [5] (Kv1.5 I508F, 10 μM vernakalant), 0.94 ± 0.02; in assay [6] (Kv1.5 T479A, 10 μM vernakalant), 0.77 ± 0.05. In addition, the “Fractional Block ± SEM” value worked out at 0.21 ± 0.04 in [7] (Kv1.5 V505A, 10 μM vernakalant) and 0.27 ± 0.05 in assay [8] (Kv1.5 V505F, 10 μM vernakalant). For the same compound, the results for the “blocking site, electrical distance across the membrane” value (at Kv1.5 WT channel; in assay [9]) were about 17% and about 40%, respectively. Besides, the “calculated binding site within the electric field (fractional electrical distance δ)” value is listed as 0.17 on Kv1.5 WT channel and 0.39 in assay [9].
`O=C(NCC1CCCCN1)c1cc(OCC(F)(F)F)ccc1OCC(F)(F)F` (centres unmarked) [Flecainide]: the Fold change came out at 2.43 in [1]; 2.4 in assay [1] (listed as flecamide); 4.13 in [2] (IC50 of I502F relative to WT); 3.55 in assay [3] (IC50 of I502L relative to WT, direction differs by drug); 5.15 in [4]; 5.2 in assay [4] (listed as flecamide). The Fold change in assay [5] (IC50 of I508F relative to WT, direction differs by drug) is on record as 1.96; in assay [6], 200; in assay [6] (listed as flecamide) it was 238; in assay [7], 2.92; in [7] (listed as flecamide), 3; in assay [8] (IC50 of V505F relative to WT, direction differs by drug) it was 8.93. Further, the IC50 in assay [1] (Kv1.5 I502A) came to 92 µM; in [2] (Kv1.5 I502F), 164 ± 31.4 µM; in assay [3] (Kv1.5 I502L), 10.8 ± 1.09 µM; in assay [4] (Kv1.5 I508A), 7.39 ± 0.92 µM; in assay [5] (Kv1.5 I508F) it was 74.7 ± 5.37 µM; in [6] (Kv1.5 T479A), 190 ± 40 nM. Also, the IC50 in [7] (Kv1.5 V505A) is 13.1 ± 3.58 µM; in [8] (Kv1.5 V505F) it was 4.3 µM and 4.27 µM. The “blocking site, electrical distance across the membrane” value on Kv1.5 WT channel is given as about 17%; in assay [9], 32%. Besides, the “calculated binding site within the electric field (fractional electrical distance δ)” value at Kv1.5 WT channel is given as 0.17; in assay [9] it was 0.32.

What is called Hill coefficient is the slope factor of the fitted curve. In general, IC50 refers to the point on the concentration scale where inhibition reaches its midpoint. Read a high IC50 as weaker potency.
